From PMC10692721, “Drug discovery for heart failure targeting myosin-binding protein C” (The Journal of Biological Chemistry, 2023)
“Also recorded” adds a separate entry of the source.

Columns and labels:
[1] = test system: FMAL-actin plus TMR-cC0-C2; assay: Selleck library HTS, 473 nm excitation (FLT of FMAL-actin with TMR-cC0-C2, FLT-FRET); format: binding, human; conditions: for 473-nm Δτ, Repeat 1 / 473-nm Δτ, Repeat 2: initial screen, 30 μM compound; for 473-nm z-score (based on avg Δτ): robust z-score, hit threshold ±4, 30 μM compound
Summary of the method: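 Donor fluorescence lifetime was then recorded. Waveforms were fit to a single exponential, and ΔFLT was obtained after a moving-median plate-gradient correction (half-row window), rescaled by the median DMSO lifetime.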

[2] = test system: TMR-fC1-C2 (C1-C2 of fast skeletal MyBP-C); assay: FLT-TMR concentration-response assay, fC1-C2; format: binding
Experimental: (§1) Compounds identified as initial hits were further examined to determine the concentration–response curves for seven conditions ([1]): FMAL-actin alone identified actin-binding compounds that alter the FLT of FMAL-actin ([2]).
(§2) Fluorescence lifetime (FLT) measurements were acquired using a high-throughput FLT plate reader (Fluorescence Innovations, Inc) ([14], [27]), provided by Photonic Pharma LLC. […] The observed waveforms were analyzed as described previously ([15], [28]).
(§3) The primary hits were dissolved in DMSO to make a 10 mM stock solution, which was serially diluted in 96-well mother plates. Hits were screened at eight concentrations (0.5–100 μM). […] Compounds (1 μl) were transferred from the mother plates into 384-well plates using a Mosquito HV liquid handler (TTP Labtech Ltd, Hertfordshire, UK). The same procedure of dispensing as for the pilot screening was applied in the concentration-response assays. Concentration dependence of the FLT-FRET (E/EDMSO) or FLT-TMR (Δτ) change data was fit to a Hill equation only under certain conditions to help guide the eye (Fig. 4).

[3] = test system: FMAL-actin/TMR-cC0-C2 interaction; assay: FLT-FRET concentration-response assay, FMAL-actin plus TMR-cC0-C2; format: binding, human; conditions: for fold effect on increased FRET (or binding) (Table 2): comparison not given; for specificity of FLT-FRET effect for unphosphorylated over phosphorylated cC0-C2: effect on cC0-C2 compared to phosphorylated cC0-C2 (Tables 1 and 2); for effect on FLT-FRET / binding between FMAL-actin and TMR-cC0-C2 (in words): unphosphorylated cC0-C2
Experimental: as §1, §2, §3

[4] = test system: PKA-phosphorylated TMR-cC0-C2 (cC0-C2#P); assay: FLT-TMR concentration-response assay, PKA-phosphorylated cC0-C2; format: binding, human
Experimental: as §1, §2, §3

TMR-cC0-C2 = assay: Selleck library HTS, 532 nm excitation (FLT of TMR-cC0-C2 in presence of FMAL-actin); format: binding, human; conditions: for 532-nm Δτ, Repeat 1 / 532-nm Δτ, Repeat 2: initial screen, 30 μM compound; for 532-nm z-score (based on avg Δτ): robust z-score, hit threshold ±4, 30 μM compound
[5] = test system: TMR-cC0-C2 (C0-C2 fragment of human cMyBP-C); assay: FLT-TMR concentration-response assay (FLT of TMR on cC0-C2, no actin); format: binding
Experimental: as §1, §2, §3

[6] = test system: rabbit fast skeletal (psoas) myofibrils; assay: Skeletal myofibril ATPase assay; format: biochemical; conditions: 50 μM compound; for effect on skeletal MF ATPase activity (in words): pCa 8 to pCa 4
Experimental: Rabbit psoas and bovine cardiac myofibrils were prepared as described in our previous study ([17]). An enzyme-coupled, NADH-linked ATPase assay was used to measure skeletal and cardiac myofibril ATPase activity in 96-well microplates at 23 °C. Ionic strength was maintained below 0.2 M, so myofilaments remained insoluble and stable ([32]). To achieve optimal enzymatic activities, buffers for skeletal and cardiac myofibrils differed slightly ([33], [34]): skeletal in 50 mM MOPS, 100 mM KCl, 5 mM MgCl2, 1 mM EGTA, pH 7.0; cardiac in 20 mM MOPS, 35 mM NaCl, 5 mM MgCl2, 1 mM EGTA, pH 7.0. Each well in the microplate contained an assay mix of 0.84 mM phosphoenolpyruvate, 0.17 mM NADH, 10 U/vol pyruvate kinase, 20 U/vol lactate dehydrogenase. The concentration of free Ca^2+ was controlled by EGTA buffering ([35]). Myofibrils were dispensed in microplates with a multichannel pipette and were incubated with assay mix plus compound of interest for 20 min at 23 °C. The concentration of myofibrils used was 0.01 mg/ml for skeletal and 0.05 mg/ml for cardiac myofibrils. The assay was started upon the addition of ATP, at a final concentration of 2.1 mM (total volume to 200 μl), and absorbance was recorded at 340 nm in a SpectraMax Plus microplate spectrophotometer from Molecular Devices. The steady-state myofibrillar ATPase rate was measured from NADH oxidation, measured as the rate of decrease in absorption at 340 nm for 30 min, with absorption data collected every 15 s. All data and statistical analysis of steady-state kinetics were conducted with the OriginPro program. The results were fitted with the Hill equation:(6) V=V0+(Vmax/1+10^−n∗^(pCa50−pCa)) where V is the ATPase rate and n is the Hill coefficient.
ATPase activity is reported on the μmol ATP/mg protein/min scale. Average data are presented as mean ± SD. Sample means are derived from three different myofibril preps (N = 3), each done in duplicate (n = 6).
The effects of compounds on ATPase activity of myofibrils were determined in the presence of 50 μM compound, across a 12-point pCa range from 4.0 (activation) to 8.0 (relaxation). The calcium sensitivity (pCa50) was determined by fitting the curves to the Hill equation. In all experiments, a 1% DMSO-only control was included. The normalized ATPase activity of the selected compounds can be found in Figure 6.

[7] = test system: FMAL-actin/TMR-fC1-C2 interaction; assay: FLT-FRET concentration-response assay, FMAL-actin plus TMR-fC1-C2; format: binding
Experimental: as §1, §2, §3

[8] = concentration-response, no actin

Molecule | 473-nm Δτ, Repeat 1 [1] [ns] | 473-nm Δτ, Repeat 2 [1] [ns] | 473-nm z-score (based on avg Δτ) [1] | fold effect on increased FRET (or binding) (Table 2) [3] | 532-nm Δτ, Repeat 1 (TMR-cC0-C2) [ns] | 532-nm Δτ, Repeat 2 (TMR-cC0-C2) [ns] | 532-nm z-score (based on avg Δτ) (TMR-cC0-C2) | cC0-C2/fC1-C2 (ratio of FLT changes) ([2]; 60 μM compound) | fC1-C2 FLT change (% change from DMSO, FLT of TMR-MyBP-C) ([2]; 60 μM compound) [%] | cC0-C2#P FLT change (% change from DMSO, FLT of TMR-MyBP-C) ([4]; 60 μM compound) [%] | cC0-C2/cC0-C2#P (ratio of FLT changes) ([5]; 60 μM compound) | cC0-C2 FLT change (% change from DMSO, FLT of TMR-MyBP-C) ([5]; 60 μM compound) [%] | specificity of FLT-FRET effect for unphosphorylated over phosphorylated cC0-C2 [3] | further results
Verteporfin | 0.093 | 0.064 | 4.41 | fivefold or greater | 0.065 | 0.075 | 4.32 | – | – | – | – | – | – | cC0-C2/fC1-C2 (ratio of FLT changes) ([2]; 10 μM compound (∗)): 2.2; fC1-C2 FLT change (% change from DMSO, FLT of TMR-MyBP-C) ([2]; 10 μM compound (∗)): 2.5%; specificity of FLT-FRET effect for cC0-C2 over fC1-C2 ([3]; effect on cC0-C2 compared to fC1-C2 (Tables 1 and 2)): 22.4 fold; cC0-C2#P FLT change (% change from DMSO, FLT of TMR-MyBP-C) ([4]; 10 μM compound (∗)): 6.8%; cC0-C2/cC0-C2#P (ratio of FLT changes) ([5]; 10 μM compound (∗)): 0.8; cC0-C2 FLT change (% change from DMSO, FLT of TMR-MyBP-C) ([5]; 10 μM compound (∗)): 5.5%
C[C@@H](O)[C@H]1C(=O)N2C(C(=O)[O-])=C(S[C@@H]3CN[C@H](C(=O)Nc4cccc(C(=O)O)c4)C3)[C@H](C)[C@H]12.[Na+] [Ertapenem sodium] | 0.353 | 0.231 | 16.37 | – | 0.079 | 0.157 | 7.23 | 0.8 | 12.2 | 8.0 | 1.3 | 10.2 | – | effect on Ca^2+-sensitivity of skeletal MF ATPase (in words) [6]: altered Ca^2+ sensitivity; effect on skeletal MF ATPase activity (in words) [6]: marked increase in ATPase activity at pCa 8; also recorded: affected ATPase
NC(=O)c1cc[n+](CC2=C(C(=O)O)N3C(=O)[C@@H](NC(=O)[C@@H](c4ccccc4)S(=O)(=O)[O-])[C@H]3SC2)cc1 [Cefsulodin sodium] | 0.394 | 0.316 | 19.91 | – | 0.114 | 0.083 | 6.07 | 0.8 | 11.5 | 8.1 | 1.1 | 9.1 | – | effect on skeletal MF ATPase activity (in words) [6]: affected ATPase; effect on skeletal MF ATPase activity (in words) ([6]; listed as Cefsoludin sodium): affected
C[C@H]1O[C@@H](O[C@H]2CC[C@@]3(C)[C@@H](CC[C@]4(C)[C@@H]3C=C[C@]35OC[C@@]6(CCC(C)(C)C[C@H]63)[C@H](O)C[C@]54C)[C@]2(C)CO)[C@H](O)[C@@H](O[C@@H]2O[C@H](CO)[C@@H](O)[C@H](O)[C@H]2O)[C@H]1O [Saikosaponin D] | -0.122 | -0.094 | -5.99 | fivefold or greater | 0.065 | 0.086 | 4.65 | 1.3 | 4.2 | 6.3 | 0.9 | 5.4 | 13–54 fold | –
CCCCC(=O)N(Cc1ccc(-c2ccccc2-c2nnn[nH]2)cc1)[C@H](C(=O)O)C(C)C [Valsartan] | 0.149 | 0.058 | 5.83 | – | 0.000 | 0.013 | 0.44 | – | – | – | – | – | stronger reduction of FRET with non-phosphorylated than phosphorylated | effect on FLT-FRET / binding between FMAL-actin and TMR-fC1-C2 (in words) [7]: decreased; effect on FLT-FRET / binding between FMAL-actin and TMR-cC0-C2 (in words) [3]: decreased
Sacubitril/valsartan [Sacubitril/valsartan (LCZ696)] | 0.140 | 0.095 | 6.60 | – | -0.025 | 0.012 | -0.37 | – | – | – | – | – | stronger reduction of FRET with non-phosphorylated than phosphorylated | effect on FLT-FRET / binding between FMAL-actin and TMR-fC1-C2 (in words) [7]: decreased; effect on FLT of TMR-fC1-C2 (in words) [2, 8]: do not affect; effect on FLT-FRET / binding between FMAL-actin and TMR-cC0-C2 (in words) [3]: decreased; effect on FLT of TMR-cC0-C2 (in words) [5, 8]: do not affect
C[C@@H]1O[C@@H](O[C@H]2[C@H](O[C@H]3CC[C@@]4(C)[C@@H](CC[C@]5(C)[C@@H]4CC=C4[C@@H]6CC(C)(C)CC[C@]6(C(=O)O)CC[C@]45C)[C@]3(C)CO)OC[C@H](O)[C@@H]2O)[C@H](O)[C@H](O)[C@H]1O [α-Hederin] | -0.087 | -0.051 | -3.83 | fivefold or greater | 0.105 | 0.175 | 8.58 | 1.0 | 6.7 | 7.1 | 0.9 | 6.7 | 13–54 fold | –
